From ChEMBL document CHEMBL6071181, “Discovery of ZLC491 as a Potent, Selective, and Orally Bioavailable CDK12/13 PROTAC Degrader” (J Med Chem, 2024)
Active and inactive are the calls of the source. No cut-off for these calls is given here.

Tests used:
[1] = Half-life in Sprague-Dawley rat at 2.5 mg/kg, iv measured after 24 hrs by LC/MS/MS analysis; assay type: ADME, organism-based; conditions: in vivo
[2] = Cmax in Sprague-Dawley rat at 2.5 mg/kg, iv measured after 24 hrs by LC/MS/MS analysis; assay type: ADME, organism-based; conditions: in vivo
[3] = AUC (0 to t) in Sprague-Dawley rat at 2.5 mg/kg, iv measured after 24 hrs by LC/MS/MS analysis; assay type: ADME, organism-based; conditions: in vivo
[4] = Half-life in Sprague-Dawley rat at 10 mg/kg, po measured after 24 hrs by LC/MS/MS analysis; assay type: ADME, organism-based; conditions: in vivo
[5] = Cmax in Sprague-Dawley rat at 10 mg/kg, po measured after 24 hrs by LC/MS/MS analysis; assay type: ADME, organism-based; conditions: in vivo
[6] = AUC (0 to t) in Sprague-Dawley rat at 10 mg/kg, po measured after 24 hrs by LC/MS/MS analysis; assay type: ADME, organism-based; conditions: in vivo
[7] = target: T1, Protein cereblon/Cyclin-dependent kinase 12 (Homo sapiens) (UniProt Q9NYV4+Q96SW2); test: PROTAC activity at CRBN/CDK12 in human MDA-MB-231 cells assessed as induction of CDK12 degradation at 0.3 uM incubated for 15 hrs by immunoblotting analysis relative to control; assay type: cell-based
Target sequence in this assay (Q96SW2 whole entry, looked up, chain 1 of 2): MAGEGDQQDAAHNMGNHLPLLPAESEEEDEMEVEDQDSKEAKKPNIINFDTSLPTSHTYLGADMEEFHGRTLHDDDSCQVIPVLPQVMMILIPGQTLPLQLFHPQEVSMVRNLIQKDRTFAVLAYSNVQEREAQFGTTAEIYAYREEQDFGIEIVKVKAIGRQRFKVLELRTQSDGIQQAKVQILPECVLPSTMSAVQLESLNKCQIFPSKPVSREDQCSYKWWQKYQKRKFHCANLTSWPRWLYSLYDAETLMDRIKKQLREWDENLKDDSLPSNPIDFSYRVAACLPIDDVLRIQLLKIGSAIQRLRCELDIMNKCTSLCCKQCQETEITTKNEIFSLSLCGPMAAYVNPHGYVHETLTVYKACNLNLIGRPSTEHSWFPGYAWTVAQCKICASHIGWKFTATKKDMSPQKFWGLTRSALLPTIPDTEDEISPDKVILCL
Target sequence in this assay (Q9NYV4 whole entry, looked up, chain 2 of 2): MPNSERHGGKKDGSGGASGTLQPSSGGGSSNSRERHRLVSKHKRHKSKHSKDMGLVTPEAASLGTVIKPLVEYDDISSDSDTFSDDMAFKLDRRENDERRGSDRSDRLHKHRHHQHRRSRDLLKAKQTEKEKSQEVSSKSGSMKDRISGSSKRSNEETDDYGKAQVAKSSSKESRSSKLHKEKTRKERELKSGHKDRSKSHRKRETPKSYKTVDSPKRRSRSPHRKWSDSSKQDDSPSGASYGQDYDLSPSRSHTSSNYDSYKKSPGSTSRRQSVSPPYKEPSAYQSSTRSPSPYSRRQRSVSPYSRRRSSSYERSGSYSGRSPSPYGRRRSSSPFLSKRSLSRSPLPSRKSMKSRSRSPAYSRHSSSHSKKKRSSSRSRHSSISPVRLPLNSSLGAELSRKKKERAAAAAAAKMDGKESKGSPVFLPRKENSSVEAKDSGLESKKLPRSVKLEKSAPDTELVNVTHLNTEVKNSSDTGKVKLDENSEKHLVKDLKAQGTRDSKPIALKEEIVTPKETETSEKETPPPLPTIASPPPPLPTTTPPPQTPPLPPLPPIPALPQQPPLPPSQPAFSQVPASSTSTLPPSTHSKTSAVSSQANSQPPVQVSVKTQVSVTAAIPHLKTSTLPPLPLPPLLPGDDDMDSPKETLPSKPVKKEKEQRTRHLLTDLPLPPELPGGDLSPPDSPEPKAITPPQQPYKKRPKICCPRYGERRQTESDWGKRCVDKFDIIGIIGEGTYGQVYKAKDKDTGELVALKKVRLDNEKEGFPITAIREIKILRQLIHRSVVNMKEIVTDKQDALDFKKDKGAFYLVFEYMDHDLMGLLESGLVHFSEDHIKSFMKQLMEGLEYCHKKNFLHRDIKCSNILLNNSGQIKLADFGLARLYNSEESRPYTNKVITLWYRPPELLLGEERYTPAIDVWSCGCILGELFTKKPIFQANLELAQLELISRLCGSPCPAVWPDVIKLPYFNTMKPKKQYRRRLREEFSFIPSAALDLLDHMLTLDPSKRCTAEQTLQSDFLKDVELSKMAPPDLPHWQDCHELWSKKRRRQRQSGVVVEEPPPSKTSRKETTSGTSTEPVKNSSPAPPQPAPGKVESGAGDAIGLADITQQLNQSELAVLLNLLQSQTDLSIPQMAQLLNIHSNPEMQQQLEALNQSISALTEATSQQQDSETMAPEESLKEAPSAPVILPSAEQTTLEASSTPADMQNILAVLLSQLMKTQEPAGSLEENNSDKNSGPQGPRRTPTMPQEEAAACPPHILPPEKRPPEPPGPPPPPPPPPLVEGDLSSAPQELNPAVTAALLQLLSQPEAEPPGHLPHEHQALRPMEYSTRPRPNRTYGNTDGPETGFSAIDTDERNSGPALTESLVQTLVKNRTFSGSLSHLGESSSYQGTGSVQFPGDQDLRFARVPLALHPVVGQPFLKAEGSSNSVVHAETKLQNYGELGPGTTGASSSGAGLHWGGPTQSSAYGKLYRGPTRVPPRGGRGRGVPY

[8] = target: T2, Protein cereblon/Cyclin-dependent kinase 13 (Homo sapiens) (UniProt Q14004+Q96SW2); test: PROTAC activity at CRBN/CDK13 in human MDA-MB-231 cells assessed as induction of CDK13 degradation at 0.3 uM incubated for 15 hrs by immunoblotting analysis relative to control; assay type: cell-based
Target sequence in this assay (Q96SW2 whole entry, looked up, chain 1 of 2): as the sequence (Q96SW2 whole entry, looked up, chain 1 of 2) above
Target sequence in this assay (Q14004 whole entry, looked up, chain 2 of 2): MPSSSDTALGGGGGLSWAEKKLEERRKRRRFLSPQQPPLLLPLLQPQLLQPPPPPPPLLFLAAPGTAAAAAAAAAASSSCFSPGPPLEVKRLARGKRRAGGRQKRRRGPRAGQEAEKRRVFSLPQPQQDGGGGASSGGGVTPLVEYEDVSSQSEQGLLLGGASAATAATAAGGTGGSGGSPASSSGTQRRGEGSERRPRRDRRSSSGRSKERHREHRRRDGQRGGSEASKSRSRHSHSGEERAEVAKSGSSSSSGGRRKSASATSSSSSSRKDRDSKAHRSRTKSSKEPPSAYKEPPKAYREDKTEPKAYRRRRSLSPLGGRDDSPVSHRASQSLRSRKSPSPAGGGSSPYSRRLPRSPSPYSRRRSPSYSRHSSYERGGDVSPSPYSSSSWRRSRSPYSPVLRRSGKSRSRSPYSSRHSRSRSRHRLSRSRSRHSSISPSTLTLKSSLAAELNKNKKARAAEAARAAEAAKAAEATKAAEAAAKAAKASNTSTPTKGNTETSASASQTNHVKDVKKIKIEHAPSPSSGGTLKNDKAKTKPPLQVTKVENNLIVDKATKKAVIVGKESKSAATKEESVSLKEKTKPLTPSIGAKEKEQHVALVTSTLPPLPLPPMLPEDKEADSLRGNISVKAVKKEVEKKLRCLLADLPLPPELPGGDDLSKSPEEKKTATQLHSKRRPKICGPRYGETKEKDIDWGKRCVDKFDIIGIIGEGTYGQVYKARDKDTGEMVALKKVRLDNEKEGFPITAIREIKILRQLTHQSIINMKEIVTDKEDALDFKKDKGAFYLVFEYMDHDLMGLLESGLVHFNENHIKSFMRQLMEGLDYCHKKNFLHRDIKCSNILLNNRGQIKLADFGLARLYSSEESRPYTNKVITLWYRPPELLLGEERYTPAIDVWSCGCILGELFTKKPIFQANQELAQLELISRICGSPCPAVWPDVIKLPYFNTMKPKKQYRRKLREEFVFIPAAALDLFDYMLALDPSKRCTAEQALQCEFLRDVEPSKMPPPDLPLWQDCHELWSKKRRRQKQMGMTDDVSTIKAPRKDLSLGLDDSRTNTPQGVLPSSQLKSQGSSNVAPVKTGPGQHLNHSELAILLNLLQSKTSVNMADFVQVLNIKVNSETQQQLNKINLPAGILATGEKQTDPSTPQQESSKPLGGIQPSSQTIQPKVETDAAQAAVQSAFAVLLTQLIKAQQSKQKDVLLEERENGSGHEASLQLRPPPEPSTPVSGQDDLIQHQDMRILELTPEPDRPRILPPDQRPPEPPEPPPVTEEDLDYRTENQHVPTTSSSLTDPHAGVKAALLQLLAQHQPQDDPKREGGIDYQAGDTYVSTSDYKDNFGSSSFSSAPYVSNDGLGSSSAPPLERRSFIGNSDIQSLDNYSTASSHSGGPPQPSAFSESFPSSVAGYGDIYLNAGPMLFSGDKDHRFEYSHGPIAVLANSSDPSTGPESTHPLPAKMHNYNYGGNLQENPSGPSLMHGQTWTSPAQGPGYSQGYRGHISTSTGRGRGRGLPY

[9] = target: T1, Protein cereblon/Cyclin-dependent kinase 12 (Homo sapiens); test: PROTAC activity at CRBN/CDK12 in human MDA-MB-231 cells assessed as induction of CDK12 degradation at 1 uM incubated for 10 hrs by immunoblotting analysis; assay type: cell-based
Target sequence in this assay (Q96SW2 whole entry, looked up): as the sequence (Q96SW2 whole entry, looked up, chain 1 of 2) above
Target sequence in this assay (Q9NYV4 whole entry, looked up): as the sequence (Q9NYV4 whole entry, looked up, chain 2 of 2) above

[10] = target: T2, Protein cereblon/Cyclin-dependent kinase 13 (Homo sapiens); test: PROTAC activity at CRBN/CDK13 in human MDA-MB-231 cells assessed as induction of CDK13 degradation at 1 uM incubated for 10 hrs by immunoblotting analysis; assay type: cell-based
Target sequence in this assay (Q14004 whole entry, looked up): as the sequence (Q14004 whole entry, looked up, chain 2 of 2) above
Target sequence in this assay (Q96SW2 whole entry, looked up): as the sequence (Q96SW2 whole entry, looked up, chain 1 of 2) above

MDA-MB-231 = test: Antiproliferative activity against human MDA-MB-231 cells assessed as inhibition of cell growth at 0.0001 to 100 uM incubated for 5 days by CCK8 assay; assay type: functional, cell-based; conditions: dose 0.0001-100 µM, time 5.0 day
HCC38 = test: Antiproliferative activity against human HCC38 cells assessed as inhibition of cell growth at 0.0001 to 100 uM incubated for 5 days by CCK8 assay; assay type: functional, cell-based; conditions: dose 0.0001-100 µM, time 5.0 day
MDA-MB-436 = test: Antiproliferative activity against human MDA-MB-436 cells assessed as inhibition of cell growth at 0.0001 to 100 uM incubated for 5 days by CCK8 assay; assay type: functional, cell-based; conditions: dose 0.0001-100 µM, time 5.0 day
MCF-10A = test: Antiproliferative activity against human MCF-10A cells assessed as inhibition of cell growth at 0.0001 to 100 uM incubated for 5 days by CCK8 assay; assay type: toxicity, cell-based; conditions: 120 h, dose 0.0001-100 µM, time 5 day
HEK293 = test: Antiproliferative activity against HEK293 cells assessed as inhibition of cell growth at 0.0001 to 100 uM incubated for 5 days by CCK8 assay; assay type: toxicity, cell-based; conditions: human, hek293, 120 h, dose 0.0001-100 µM, time 5 day
MRC5 = test: Antiproliferative activity against human MRC5 cells assessed as inhibition of cell growth at 0.0001 to 100 uM incubated for 5 days by CCK8 assay; assay type: toxicity, cell-based; conditions: mrc5, 120 h, dose 0.0001-100 µM, time 5 day

Compound: N#Cc1ccc(N[C@H]2CC[C@H](N(C(=O)NCc3ccccc3)c3ccc(N4CCN(C5CCN(c6ccc7c(c6)C(=O)N(C6CCC(=O)NC6=O)C7=O)CC5)CC4)cc3)CC2)nc1 (stereo partly specified)
- half-life [1]: 143 min
- Cmax [2]: 2590 ng/mL
- AUC(0-t) at 24 h [3]: 4720 ng·h/mL
- half-life [4]: 182 min
- Cmax [5]: 308 ng/mL
- AUC(0-t) at 24 h [6]: 3110 ng·h/mL

Compound: 3-benzyl-1-((1r,4r)-4-((5-cyanopyridin-2-yl)amino)cyclohexyl)-1-(4-(4-(1-(2-(2,6-dioxopiperidin-3-yl)-1,3-dioxoisoindolin-5-yl)azetidine-3-carbonyl)piperazin-1-yl)phenyl)urea
- Activity [7]: 35%
- Activity [8]: 38%

Compound: CN1C(=O)CCC(N2C(=O)c3cc(F)c(N4CCC(N5CCN(c6ccc(N(C(=O)NCc7ccccc7)[C@H]7CC[C@H](Nc8ccc(C#N)cn8)CC7)cc6)CC5)CC4)cc3C2=O)C1=O (stereo partly specified)
- Activity [9]: inactive
- Activity [10]: inactive
- Activity (MDA-MB-231): inactive
- Activity (HCC38): inactive
- Activity (MDA-MB-436): inactive
- Activity (MCF-10A): Non-Toxic
- Activity (HEK293): Non-Toxic
- Activity (MRC5): Non-Toxic
